Experimental data as given in patent US7442805B2, “Substituted sulfonamide-indoles” (Wyeth, priority 2003, dated 2008).

Legend:
[1] = molecular target: T1, recombinant human plasminogen activator inhibitor-1 (PAI-1) (Homo sapiens, UniProt P05121); experiment: Primary screen for the PAI-1 inhibition (chromogenic tPA activity assay); assay type: biochemical; conditions: pH 6.6, 140 nM PAI-1, 70 nM tPA; for inhibition at 10 µM: 10 μM test compound; for inhibition at 25 µM: 25 μM test compound
T1 construct: purchased Molecular Innovations, Royal Oak, Mich
Protocol: Primary Screen for the PAI-1 Inhibition
Test compounds are dissolved in DMSO at a final concentration of 10 mM, then diluted 100× in physiologic buffer. The inhibitory assay is initiated by the addition of the test compound (1-100 μM final concentration, maximum DMSO concentration of 0.2%) in a pH 6.6 buffer containing 140 nM recombinant human plasminogen activator inhibitor-1 (PAI-1; Molecular Innovations, Royal Oak, Mich.). Following a 1 hour incubation at room temperature, 70 nM of recombinant human tissue plasminogen activator (tPA) is added, and the combination of the test compound, PAI-1 and tPA is incubated for an additional 30 minutes. Following the second incubation, Spectrozyme-tPA (American Diagnostica, Greenwich, Conn.), a chromogenic substrate for tPA, is added and absorbance read at 405 nm at 0 and 60 minutes. Relative PAI-1 inhibition is equal to the residual tPA activity in the presence of the test compound and PAI-1. Control treatments include the complete inhibition of tPA by PAI-1 at the molar ratio employed (2:1), and the absence of any effect of the test compound on tPA alone.

human PAI-1 = human PAI-1 (Homo sapiens, UniProt P05121); experiment: Assay for determining IC50 of inhibition of PAI-1 (tPA-coated plate, antibody detection of active PAI-1); assay type: binding; conditions: active PAI-1 bound to tPA-coated plate; pH 7.5
Protocol: Assay for determining IC50 of Inhibition of PAI-1
This assay is based upon the non-SDS dissociable interaction between tPA and active PAI-1. Assay plates are initially coated with human tPA (10 μg/ml). Test compounds of the present invention are dissolved in DMSO at 10 mM, then diluted with physiologic buffer (pH 7.5) to a final concentration of […]. Test compounds are incubated with human PAI-1 (50 ng/ml) for 15 minutes at room temperature. The tPA-coated plate is washed with a solution of 0.05% Tween 20 and 0.1% BSA, then the plate is blocked with a solution of 3% BSA. An aliquot of the substituted sulfonamide indole/PAI-1 solution is then added to the tPA-coated plate, incubated at room temperature for 1 hour, and washed. Active PAI-1 bound to the plate is assessed by adding an aliquot of a 1:1000 dilution of the 33B8 monoclonal antibody against human PAI-1, and incubating the plate at room temperature for 1 hour (Molecular Innovations, Royal Oak, Mich.). The plate is again washed, and a solution of goat anti-mouse IgG-alkaline phosphatase conjugate is added at a 1:50,000 dilution in goat serum. The plate is incubated 30 minutes at room temperature, washed, and a solution of alkaline phosphatase substrate is added. The plate is incubated 45 minutes at room temperature, and color development is determined at OD405 nm. The quantitation of active PAI-1 bound to tPA at varying concentrations of the test compound is used to determine the IC50. Results are analyzed using a logarithmic best-fit equation. The assay sensitivity is 5 ng/ml of human PAI-1 as determined from a standard curve ranging from 0-100 ng/ml.

Chain of human PAI-1 (P05121 24-402): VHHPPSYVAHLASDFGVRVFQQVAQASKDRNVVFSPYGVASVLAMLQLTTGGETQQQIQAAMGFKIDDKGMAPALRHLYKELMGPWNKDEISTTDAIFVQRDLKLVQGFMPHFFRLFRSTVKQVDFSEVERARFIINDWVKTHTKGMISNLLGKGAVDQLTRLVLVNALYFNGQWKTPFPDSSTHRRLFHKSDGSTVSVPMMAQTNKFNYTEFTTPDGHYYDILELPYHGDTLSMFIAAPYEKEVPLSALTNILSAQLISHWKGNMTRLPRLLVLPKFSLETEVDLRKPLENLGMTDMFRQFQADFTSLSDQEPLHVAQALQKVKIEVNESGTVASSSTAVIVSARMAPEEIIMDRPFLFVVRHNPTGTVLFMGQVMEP
T1 sequence (P05121 24-402): as above

Compound	inhibition at 10 µM [1] [%]	inhibition at 25 µM [1] [%]	IC50 (human PAI-1) [µM]
O=C(O)c1c(-c2ccccc2)c2cc(NS(=O)(=O)c3ccc(OC(F)(F)F)cc3)ccc2n1Cc1ccccc1 [Example 1, 1-benzyl-3-phenyl-5-({[4-(trifluoromethoxy)phenyl]sulfonyl}amino)-1H-indole-2-carboxylic acid]	33	81	8.3
O=C(O)c1c(-c2ccccc2)c2cc(NS(=O)(=O)c3cccc4cccnc34)ccc2n1Cc1ccccc1 [Example 2, 1-benzyl-3-phenyl-5-[(quinolin-8-ylsulfonyl)amino]-1H-indole-2-carboxylic acid]	8	43	
CC(C)(C)c1ccc(S(=O)(=O)Nc2ccc3c(c2)c(-c2ccccc2)c(C(=O)O)n3Cc2ccccc2)cc1 [Example 3, 1-benzyl-5-{[(4-tert-butylphenyl)sulfonyl]amino}-3-phenyl-1H-indole-2-carboxylic acid]	41	82	28.7
O=C(O)c1c(-c2ccccc2)c2cc(NS(=O)(=O)c3ccc(-c4ccccc4)cc3)ccc2n1Cc1ccccc1 [Example 4, 1-benzyl-5-[(1,1′-biphenyl-4-ylsulfonyl)amino]-3-phenyl-1H-indole-2-carboxylic acid]	44	61	23
Cn1c(C(=O)O)c(-c2ccccc2)c2cc(NS(=O)(=O)c3ccc(OC(F)(F)F)cc3)ccc21 [Example 5, 1-methyl-3-phenyl-5-({[4-(trifluoromethoxy)phenyl]sulfonyl}amino)-1H-indole-2-carboxylic acid]		19	
Cn1c(C(=O)O)c(-c2ccccc2)c2cc(NS(=O)(=O)c3ccc(C(C)(C)C)cc3)ccc21 [Example 6, 5-{[(4-tert-butylphenyl)sulfonyl]amino}-1-methyl-3-phenyl-1H-indole-2-carboxylic acid]		46	
Cn1c(C(=O)O)c(-c2ccccc2)c2cc(NS(=O)(=O)c3ccc(-c4ccccc4)cc3)ccc21 [Example 7, 5-[(1,1′-biphenyl-4-ylsulfonyl)amino]-1-methyl-3-phenyl-1H-indole-2-carboxylic acid]	11	68	
CC(C)C[C@H](NC(=O)c1c(-c2ccccc2)c2cc(NS(=O)(=O)c3ccc(OC(F)(F)F)cc3)ccc2n1C)C(=O)O [Example 8, N-{[1-methyl-3-phenyl-5-({[4-(trifluoromethoxy)phenyl]sulfonyl}amino)-1H-indol-2-yl]carbonyl}-L-leucine]	18	73	
Cn1c(C(=O)N[C@@H](Cc2ccccc2)C(=O)O)c(-c2ccccc2)c2cc(NS(=O)(=O)c3ccc(-c4ccccc4)cc3)ccc21 [Example 9, N-({5-[(1,1′-biphenyl-4-ylsulfonyl)amino]-1-methyl-3-phenyl-1H-indol-2-yl}carbonyl)-L-phenylalanine]	8	73	
CC(C)C[C@H](NC(=O)c1c(-c2ccccc2)c2cc(NS(=O)(=O)c3ccc(-c4ccccc4)cc3)ccc2n1C)C(=O)O [Example 10, N-({5-[(1,1′-biphenyl-4-ylsulfonyl)amino]-1-methyl-3-phenyl-1H-indol-2-yl}carbonyl)-L-leucine]	15	74	
Cn1c(C(=O)N[C@@H](Cc2ccccc2)C(=O)O)c(-c2ccccc2)c2cc(NS(=O)(=O)c3ccc(C(C)(C)C)cc3)ccc21 [Example 11, N-[(5-{[(4-tert-butylphenyl)sulfonyl]amino}-1-methyl-3-phenyl-1H-indol-2-yl)carbonyl]-L-phenylalanine]	15	77	
CC(C)C[C@H](NC(=O)c1c(-c2ccccc2)c2cc(NS(=O)(=O)c3ccc(C(C)(C)C)cc3)ccc2n1C)C(=O)O [Example 12, N-[(5-{[(4-tert-butylphenyl)sulfonyl]amino}-1-methyl-3-phenyl-1H-indol-2-yl)carbonyl]-L-leucine]	14	64	
CS(=O)(=O)Nc1ccc2c(c1)c(-c1ccccc1)c(C(=O)O)n2Cc1ccc(-c2ccccc2)cc1 [Example 13, 1-(1,1′-biphenyl-4-ylmethyl)-5-[(methylsulfonyl)amino]-3-phenyl-1H-indole-2-carboxylic acid]	24	62	
O=C(O)c1c(-c2ccccc2)c2cc(NS(=O)(=O)c3ccccc3)ccc2n1Cc1ccc(-c2ccccc2)cc1 [Example 14, 1-(1,1′-biphenyl-4-ylmethyl)-3-phenyl-5-[(phenylsulfonyl)amino]-1H-indole-2-carboxylic acid]	77	87	28
CS(=O)(=O)Nc1ccc2c(c1)c(-c1ccccc1)c(C(=O)O)n2C(c1ccccc1)c1ccccc1 [Example 15, 1-benzhydryl-5-[(methylsulfonyl)amino]-3-phenyl-1H-indole-2-carboxylic acid]	10	36	
O=C(O)c1c(-c2ccccc2)c2cc(NS(=O)(=O)c3ccccc3)ccc2n1C(c1ccccc1)c1ccccc1 [Example 16, 1-benzhydryl-3-phenyl-5-[(phenylsulfonyl)amino]-1H-indole-2-carboxylic acid]	68	89	
CC(C)(C)c1ccc(-c2c(C(=O)O)n(Cc3ccccc3)c3ccc(NS(=O)(=O)c4ccc(OC(F)(F)F)cc4)cc23)cc1 [Example 17, 1-Benzyl-3-(4-tert-butylphenyl)-5-({[4-(trifluoromethoxy)phenyl]sulfonyl}amino)-1H-indole-2-carboxylic acid]	43	84	
O=C(O)c1c(-c2ccc3[nH]ccc3c2)c2cc(NS(=O)(=O)c3ccccc3)ccc2n1Cc1ccccc1 [Example 18, 1-benzyl-5-[(phenylsulfonyl)amino]-1H,1′H-3,5′-biindole-2-carboxylic acid]	19	55	
O=C(O)c1[nH]c2ccc(NS(=O)(=O)c3ccc(OC(F)(F)F)cc3)cc2c1-c1ccccc1 [Example 19, 3-phenyl-5-({[4-(trifluoromethoxy)phenyl]sulfonyl}amino)-1H-indole-2-carboxylic acid]	12	50	
CC(C)(C)c1ccc(S(=O)(=O)Nc2ccc3[nH]c(C(=O)O)c(-c4ccccc4)c3c2)cc1 [Example 20, 5-{[(4-tert-butylphenyl)sulfonyl]amino}-3-phenyl-1H-indole-2-carboxylic acid]	20	81	28.4
O=C(O)c1[nH]c2ccc(NS(=O)(=O)c3ccc(-c4ccccc4)cc3)cc2c1-c1ccccc1 [Example 21, 5-[(1,1′-biphenyl-4-ylsulfonyl)amino]-3-phenyl-1H-indole-2-carboxylic acid]	29	86	19.5
